This is an account of results in ChEMBL document CHEMBL5696441 (Nat Chem Biol, 2011).

The target of assay [1] is Activin receptor type-2A (Homo sapiens) (UniProt P27037). The experiment in a line: Inhibition of ACVR2A (unknown origin) assessed as remaining activity at 1 uM by Kinome scan method relative to control.
Assay [2] deals with Bone morphogenetic protein receptor type-1A (Homo sapiens) (UniProt P36894). The experiment in a line: Inhibition of BMPR1A (unknown origin) assessed as remaining activity at 1 uM by Kinome scan method relative to control.
Assay [3] has as its target T1, Megakaryocyte-associated tyrosine-protein kinase (Homo sapiens) (UniProt P42679).
T1 sequence (whole entry): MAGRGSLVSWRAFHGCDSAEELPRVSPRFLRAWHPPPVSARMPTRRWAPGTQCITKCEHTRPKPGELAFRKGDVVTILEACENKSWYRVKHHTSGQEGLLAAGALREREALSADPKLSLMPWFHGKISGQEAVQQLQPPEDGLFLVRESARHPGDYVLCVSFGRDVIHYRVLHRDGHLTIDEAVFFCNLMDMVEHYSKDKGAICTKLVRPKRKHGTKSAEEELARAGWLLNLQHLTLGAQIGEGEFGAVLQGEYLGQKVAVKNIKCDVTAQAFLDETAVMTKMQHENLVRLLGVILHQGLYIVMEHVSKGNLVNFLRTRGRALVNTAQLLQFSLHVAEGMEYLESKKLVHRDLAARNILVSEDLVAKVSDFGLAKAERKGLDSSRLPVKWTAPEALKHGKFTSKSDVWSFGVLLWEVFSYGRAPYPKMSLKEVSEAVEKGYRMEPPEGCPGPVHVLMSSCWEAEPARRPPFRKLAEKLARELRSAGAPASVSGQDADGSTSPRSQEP
Nature of the assay: Inhibition of CTK (unknown origin) assessed as remaining activity at 1 uM by Kinome scan method relative to control.

Assay [4] addresses T2, Serine/threonine-protein kinase DCLK2 (Homo sapiens) (UniProt Q8N568).
T2 sequence (whole entry): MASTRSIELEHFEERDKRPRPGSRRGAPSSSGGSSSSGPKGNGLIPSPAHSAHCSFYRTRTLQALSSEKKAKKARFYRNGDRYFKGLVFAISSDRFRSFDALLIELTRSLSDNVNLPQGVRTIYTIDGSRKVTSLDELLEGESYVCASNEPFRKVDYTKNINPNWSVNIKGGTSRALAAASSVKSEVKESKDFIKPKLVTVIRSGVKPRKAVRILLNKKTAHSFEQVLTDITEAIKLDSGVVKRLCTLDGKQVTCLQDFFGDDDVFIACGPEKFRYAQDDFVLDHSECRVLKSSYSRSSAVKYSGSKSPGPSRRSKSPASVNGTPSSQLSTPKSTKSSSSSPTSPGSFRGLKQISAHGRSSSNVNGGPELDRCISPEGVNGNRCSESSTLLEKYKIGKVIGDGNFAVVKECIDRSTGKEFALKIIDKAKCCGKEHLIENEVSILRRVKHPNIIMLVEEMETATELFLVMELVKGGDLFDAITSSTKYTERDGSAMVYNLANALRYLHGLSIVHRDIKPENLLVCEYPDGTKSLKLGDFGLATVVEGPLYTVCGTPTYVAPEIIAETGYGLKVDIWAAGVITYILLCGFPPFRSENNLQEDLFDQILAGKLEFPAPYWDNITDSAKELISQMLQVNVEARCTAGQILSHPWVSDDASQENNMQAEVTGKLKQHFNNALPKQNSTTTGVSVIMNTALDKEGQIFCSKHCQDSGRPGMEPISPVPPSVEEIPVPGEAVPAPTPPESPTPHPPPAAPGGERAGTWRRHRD
The experiment in a line: Inhibition of DCAMKL2 (unknown origin) assessed as remaining activity at 1 uM by Kinome scan method relative to control.

The target in assay [5] is Mitogen-activated protein kinase 7 (Homo sapiens) (UniProt Q13164). Nature of the assay: Inhibition of ERK5 (unknown origin) assessed as remaining activity at 1 uM by Kinome scan method relative to control.
Assay [6] deals with Hormonally up-regulated neu tumor-associated kinase (Homo sapiens) (UniProt P57058). The experiment in a line: Inhibition of HUNK (unknown origin) assessed as remaining activity at 1 uM by Kinome scan method relative to control.
Assay [7] deals with Microtubule-associated serine/threonine-protein kinase 1 (Homo sapiens) (UniProt Q9Y2H9). The experiment in a line: Inhibition of MAST1 (unknown origin) assessed as remaining activity at 1 uM by Kinome scan method relative to control.
Assay [8] concerns the target Dual specificity mitogen-activated protein kinase kinase 4 (Homo sapiens) (UniProt P45985). The experiment in a line: Inhibition of MEK4 (unknown origin) assessed as remaining activity at 1 uM by Kinome scan method relative to control.
The target in assay [9] is T3, Serine/threonine-protein kinase Nek2 (Homo sapiens) (UniProt P51955).
T3 sequence (whole entry): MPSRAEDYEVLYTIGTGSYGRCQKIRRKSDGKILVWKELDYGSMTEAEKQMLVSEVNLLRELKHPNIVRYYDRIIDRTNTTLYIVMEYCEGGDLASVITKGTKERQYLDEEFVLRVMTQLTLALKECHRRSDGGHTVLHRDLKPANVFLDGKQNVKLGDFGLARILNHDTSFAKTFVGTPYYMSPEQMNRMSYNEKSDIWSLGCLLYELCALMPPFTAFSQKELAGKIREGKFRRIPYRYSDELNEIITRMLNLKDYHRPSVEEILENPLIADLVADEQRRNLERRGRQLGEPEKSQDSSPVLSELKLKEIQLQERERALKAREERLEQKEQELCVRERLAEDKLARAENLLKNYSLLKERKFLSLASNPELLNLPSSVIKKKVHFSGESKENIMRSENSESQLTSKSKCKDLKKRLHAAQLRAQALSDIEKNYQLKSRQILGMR
The experiment in a line: Inhibition of NEK2 (unknown origin) assessed as remaining activity at 1 uM by Kinome scan method relative to control.

The target in assay [10] is Phosphatidylinositol 3-kinase C2 domain-containing subunit gamma (Homo sapiens) (UniProt O75747). The experiment in a line: Inhibition of PIK3C2G (unknown origin) assessed as remaining activity at 1 uM by Kinome scan method relative to control.
Assay [11] relates to Phosphatidylinositol 4,5-bisphosphate 3-kinase catalytic subunit alpha isoform (Homo sapiens), P42336 [H1047L]. The experiment in a line: Inhibition of PIK3CA H1047L mutant (unknown origin) assessed as remaining activity at 1 uM by Kinome scan method relative to control.
The target in assay [12] is Phosphatidylinositol 4,5-bisphosphate 3-kinase catalytic subunit beta isoform (Homo sapiens) (UniProt P42338). Nature of the assay: Inhibition of PIK3CB (unknown origin) assessed as remaining activity at 1 uM by Kinome scan method relative to control.
Assay [13] addresses SRSF protein kinase 2 (Homo sapiens) (UniProt P78362). The experiment in a line: Inhibition of SRPK2 (unknown origin) assessed as remaining activity at 1 uM by Kinome scan method relative to control.
The target of assay [14] is TRAF2 and NCK-interacting protein kinase (Homo sapiens) (UniProt Q9UKE5). The experiment in a line: Inhibition of TNIK (unknown origin) assessed as remaining activity at 1 uM by Kinome scan method relative to control.
The target of assay [15] is Wee1-like protein kinase (Homo sapiens) (UniProt P30291). Nature of the assay: Inhibition of WEE1 (unknown origin) assessed as remaining activity at 1 uM by Kinome scan method relative to control.

Chain of Mitogen-activated protein kinase 7 (Homo sapiens) (Q13164 2-816 limits assumed): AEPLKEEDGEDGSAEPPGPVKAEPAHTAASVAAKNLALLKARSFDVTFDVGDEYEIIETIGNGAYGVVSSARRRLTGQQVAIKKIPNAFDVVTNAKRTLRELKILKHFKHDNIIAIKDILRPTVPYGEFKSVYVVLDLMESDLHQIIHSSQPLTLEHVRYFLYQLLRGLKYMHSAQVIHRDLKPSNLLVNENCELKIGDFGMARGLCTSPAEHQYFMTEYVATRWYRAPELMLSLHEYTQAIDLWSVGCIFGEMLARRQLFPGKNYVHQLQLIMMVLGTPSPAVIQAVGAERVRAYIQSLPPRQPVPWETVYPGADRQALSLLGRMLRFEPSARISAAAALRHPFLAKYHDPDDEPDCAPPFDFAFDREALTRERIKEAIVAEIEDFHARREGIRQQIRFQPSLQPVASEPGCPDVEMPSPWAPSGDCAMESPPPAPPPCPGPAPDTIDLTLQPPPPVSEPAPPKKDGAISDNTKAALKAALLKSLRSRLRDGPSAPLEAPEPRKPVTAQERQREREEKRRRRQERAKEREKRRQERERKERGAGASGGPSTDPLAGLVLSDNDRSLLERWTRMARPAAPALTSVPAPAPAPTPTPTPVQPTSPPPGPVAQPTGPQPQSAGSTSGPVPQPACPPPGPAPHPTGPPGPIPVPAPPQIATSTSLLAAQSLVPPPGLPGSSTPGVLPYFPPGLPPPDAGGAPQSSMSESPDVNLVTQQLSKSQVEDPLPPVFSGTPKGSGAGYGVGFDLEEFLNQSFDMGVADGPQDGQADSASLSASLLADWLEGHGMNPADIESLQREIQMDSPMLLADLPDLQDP
Chain of TRAF2 and NCK-interacting protein kinase (Homo sapiens) (Q9UKE5 whole entry, looked up): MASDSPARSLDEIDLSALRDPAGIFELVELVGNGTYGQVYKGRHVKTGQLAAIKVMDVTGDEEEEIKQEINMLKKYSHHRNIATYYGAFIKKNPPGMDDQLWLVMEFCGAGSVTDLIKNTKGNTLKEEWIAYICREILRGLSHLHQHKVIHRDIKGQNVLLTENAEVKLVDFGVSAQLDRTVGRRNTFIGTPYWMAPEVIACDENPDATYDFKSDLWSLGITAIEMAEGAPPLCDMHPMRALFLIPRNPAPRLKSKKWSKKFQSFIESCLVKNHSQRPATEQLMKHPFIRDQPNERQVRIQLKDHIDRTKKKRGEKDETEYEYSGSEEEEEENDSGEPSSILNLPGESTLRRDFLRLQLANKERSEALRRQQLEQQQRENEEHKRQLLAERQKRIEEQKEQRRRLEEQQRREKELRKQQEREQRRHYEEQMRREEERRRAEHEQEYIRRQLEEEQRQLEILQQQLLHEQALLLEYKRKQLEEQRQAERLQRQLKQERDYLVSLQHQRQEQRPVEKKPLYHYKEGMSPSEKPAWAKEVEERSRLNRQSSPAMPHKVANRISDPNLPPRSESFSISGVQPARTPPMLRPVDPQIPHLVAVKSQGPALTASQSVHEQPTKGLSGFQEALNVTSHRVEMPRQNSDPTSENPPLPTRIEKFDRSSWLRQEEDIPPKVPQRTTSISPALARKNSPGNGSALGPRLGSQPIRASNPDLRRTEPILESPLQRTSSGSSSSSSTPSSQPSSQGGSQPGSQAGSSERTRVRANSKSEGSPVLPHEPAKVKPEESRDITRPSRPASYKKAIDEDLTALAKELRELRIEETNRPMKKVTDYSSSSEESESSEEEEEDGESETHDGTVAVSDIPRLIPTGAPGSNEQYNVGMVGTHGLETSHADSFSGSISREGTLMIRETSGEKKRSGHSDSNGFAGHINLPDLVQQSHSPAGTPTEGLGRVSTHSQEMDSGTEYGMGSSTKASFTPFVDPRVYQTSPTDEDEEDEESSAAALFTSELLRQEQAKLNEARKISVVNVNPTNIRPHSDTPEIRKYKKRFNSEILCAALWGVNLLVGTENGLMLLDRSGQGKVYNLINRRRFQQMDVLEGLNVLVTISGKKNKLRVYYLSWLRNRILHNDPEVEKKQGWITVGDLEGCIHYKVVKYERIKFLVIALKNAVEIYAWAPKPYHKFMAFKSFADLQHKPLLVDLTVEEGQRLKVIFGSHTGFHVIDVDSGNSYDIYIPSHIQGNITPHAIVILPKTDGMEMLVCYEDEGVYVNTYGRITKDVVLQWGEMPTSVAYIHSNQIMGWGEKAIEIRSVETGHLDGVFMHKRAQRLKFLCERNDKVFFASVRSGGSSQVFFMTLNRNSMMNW
Chain of Phosphatidylinositol 3-kinase C2 domain-containing subunit gamma (Homo sapiens) (O75747 whole entry, the tested form may be a part, canonical isoform): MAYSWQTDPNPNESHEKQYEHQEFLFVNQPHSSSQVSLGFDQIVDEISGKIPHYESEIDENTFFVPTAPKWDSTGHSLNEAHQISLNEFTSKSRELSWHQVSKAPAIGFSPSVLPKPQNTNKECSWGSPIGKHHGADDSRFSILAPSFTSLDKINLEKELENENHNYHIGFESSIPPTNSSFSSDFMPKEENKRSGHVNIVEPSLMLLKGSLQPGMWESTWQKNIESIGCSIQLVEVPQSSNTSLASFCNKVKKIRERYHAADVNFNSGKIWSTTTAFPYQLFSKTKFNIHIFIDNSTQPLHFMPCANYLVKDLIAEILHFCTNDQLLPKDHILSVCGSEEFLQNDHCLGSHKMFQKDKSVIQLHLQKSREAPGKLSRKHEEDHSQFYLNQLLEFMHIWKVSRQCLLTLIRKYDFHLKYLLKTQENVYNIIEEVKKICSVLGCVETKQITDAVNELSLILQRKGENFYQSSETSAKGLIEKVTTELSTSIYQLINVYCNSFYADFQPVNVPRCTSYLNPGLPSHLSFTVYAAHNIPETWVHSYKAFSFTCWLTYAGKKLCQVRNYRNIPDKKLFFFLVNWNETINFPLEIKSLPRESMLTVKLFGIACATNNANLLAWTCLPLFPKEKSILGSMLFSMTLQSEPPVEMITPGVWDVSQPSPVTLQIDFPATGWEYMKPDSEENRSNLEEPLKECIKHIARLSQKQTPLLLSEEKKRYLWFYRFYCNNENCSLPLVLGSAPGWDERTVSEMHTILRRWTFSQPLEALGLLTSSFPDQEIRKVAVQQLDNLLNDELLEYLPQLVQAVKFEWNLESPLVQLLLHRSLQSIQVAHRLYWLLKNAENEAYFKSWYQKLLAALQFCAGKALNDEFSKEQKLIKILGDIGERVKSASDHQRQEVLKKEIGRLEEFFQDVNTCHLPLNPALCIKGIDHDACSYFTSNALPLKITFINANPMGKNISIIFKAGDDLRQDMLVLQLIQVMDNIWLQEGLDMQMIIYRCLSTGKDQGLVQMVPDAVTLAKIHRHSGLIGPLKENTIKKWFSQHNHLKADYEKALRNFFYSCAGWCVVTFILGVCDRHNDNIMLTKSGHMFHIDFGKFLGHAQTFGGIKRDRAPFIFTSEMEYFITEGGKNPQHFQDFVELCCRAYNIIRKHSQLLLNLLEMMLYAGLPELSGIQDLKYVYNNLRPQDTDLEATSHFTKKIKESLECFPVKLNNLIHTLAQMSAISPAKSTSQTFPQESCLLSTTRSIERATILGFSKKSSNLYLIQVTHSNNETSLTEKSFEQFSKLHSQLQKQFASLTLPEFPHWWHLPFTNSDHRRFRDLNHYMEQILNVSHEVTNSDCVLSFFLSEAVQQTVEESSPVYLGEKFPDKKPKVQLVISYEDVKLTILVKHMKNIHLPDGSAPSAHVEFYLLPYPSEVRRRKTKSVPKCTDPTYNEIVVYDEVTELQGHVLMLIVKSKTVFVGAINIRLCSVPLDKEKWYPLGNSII
Chain of Dual specificity mitogen-activated protein kinase kinase 4 (Homo sapiens) (P45985 whole entry): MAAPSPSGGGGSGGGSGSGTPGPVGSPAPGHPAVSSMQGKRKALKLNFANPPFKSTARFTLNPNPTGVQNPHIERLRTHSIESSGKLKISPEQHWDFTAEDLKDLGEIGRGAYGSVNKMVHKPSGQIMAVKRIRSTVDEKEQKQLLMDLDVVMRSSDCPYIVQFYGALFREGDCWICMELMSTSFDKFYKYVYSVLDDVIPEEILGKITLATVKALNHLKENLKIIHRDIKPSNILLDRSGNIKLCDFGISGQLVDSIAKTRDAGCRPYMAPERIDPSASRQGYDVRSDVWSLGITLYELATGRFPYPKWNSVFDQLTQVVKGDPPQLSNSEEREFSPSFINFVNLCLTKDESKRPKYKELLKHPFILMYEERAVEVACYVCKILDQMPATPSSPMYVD
Chain of Bone morphogenetic protein receptor type-1A (Homo sapiens) (P36894 whole entry): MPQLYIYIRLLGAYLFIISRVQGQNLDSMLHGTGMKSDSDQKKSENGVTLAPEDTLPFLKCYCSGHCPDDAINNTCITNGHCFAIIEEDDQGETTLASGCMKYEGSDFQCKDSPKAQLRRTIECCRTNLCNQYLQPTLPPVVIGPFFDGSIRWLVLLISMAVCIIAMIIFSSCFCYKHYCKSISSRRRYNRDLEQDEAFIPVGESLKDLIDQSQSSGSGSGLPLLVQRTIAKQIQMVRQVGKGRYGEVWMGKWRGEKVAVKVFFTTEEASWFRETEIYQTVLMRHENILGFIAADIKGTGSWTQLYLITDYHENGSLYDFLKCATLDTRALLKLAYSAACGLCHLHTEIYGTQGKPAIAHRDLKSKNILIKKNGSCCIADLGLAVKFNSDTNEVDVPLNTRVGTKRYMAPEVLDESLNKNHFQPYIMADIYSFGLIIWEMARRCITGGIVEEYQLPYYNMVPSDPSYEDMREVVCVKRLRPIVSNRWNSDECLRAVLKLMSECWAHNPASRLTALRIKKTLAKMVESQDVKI
Chain of Activin receptor type-2A (Homo sapiens) (P27037 whole entry): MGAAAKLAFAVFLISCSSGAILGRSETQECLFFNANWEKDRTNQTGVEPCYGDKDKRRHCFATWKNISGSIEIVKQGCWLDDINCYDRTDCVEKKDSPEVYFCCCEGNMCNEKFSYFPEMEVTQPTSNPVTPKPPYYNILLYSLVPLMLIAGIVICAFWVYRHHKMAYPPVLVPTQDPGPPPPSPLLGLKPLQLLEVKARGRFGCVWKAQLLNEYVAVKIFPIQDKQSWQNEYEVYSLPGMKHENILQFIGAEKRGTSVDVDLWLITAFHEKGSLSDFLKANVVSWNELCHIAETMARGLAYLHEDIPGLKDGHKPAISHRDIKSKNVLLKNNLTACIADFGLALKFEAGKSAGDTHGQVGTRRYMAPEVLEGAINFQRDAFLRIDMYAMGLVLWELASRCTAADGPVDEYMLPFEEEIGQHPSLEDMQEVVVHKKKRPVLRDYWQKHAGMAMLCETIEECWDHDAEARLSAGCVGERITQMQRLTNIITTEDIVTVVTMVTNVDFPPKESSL

`Nc1ccccc1Nc1ccc2c(c1)CCc1ccccc1C2=O`: the Activity in assay [1] came to 96%; in [2] it was 98%; in [3], 71%; in [4], 98%; in [5], 96%; in assay [6], 91%. Also, the Activity was determined as 79% in [7]; 64% in assay [8]; 90% in assay [9]; 97% in assay [10]; 84% in [11]; 88% in [12]. The Activity was 79% in assay [13], 90% in [14] and 98% in assay [15].
As for `O=C1c2ccc(Nc3ccc(F)cc3F)cc2CCc2ccc(OC[C@H](O)CO)cc21` [Skepinone-L], the Activity amounted to 95% in assay [1]; 100% in [2]; 80% in assay [3]; 88% in assay [4]; 99% in [5]; 96% in assay [6]. Also, the Activity in assay [7] came out at 85%; in assay [8], 78%; in assay [9], 94%; in [10], 100%; in [11], 95%; in assay [12], 96%. For the same compound, the values for the Activity in assay [13], in assay [14] and in assay [15] were 95%, 93% and 100%, respectively.
